Experimental data published in patent US7741431B2, “Liposomes containing novel targeting and/or fusogenic peptides, preparations containing them and therapeutic use thereof” (The United States of America as represented by the …, priority 2005, dated 2010).
Entries after “also recorded” stand apart in the source; their conditions may differ.

Tests used:
[1] = test system: lung epithelial cells (A-549); type: cell-based, human
mast cells (RBL-2H3) = type: cell-based
[2] = Liposome fusion assay (Rhodamine B R18 dequenching)
Source text: Liposomes are picked-up by cells by endocytosis and form an endosome. Within a few minutes the pH in the endosome drops to 5 and degradation begins. In order to accelerate the fusion of the liposome with the endosome membrane and release its DNA content into the cytoplasm, fusogenic peptides (Plank et al., 1994, Puyal et al., 1994), triggered by the low pH, are integrated into the liposomes membrane (0.1-2%). The most suitable fusogenic peptide and its concentration in the liposome are selected, using in-vitro fluorescence method (Hoekstra et al., 1984) at different pH levels.
Rhodamine B (R18) quenching curve: Rhodamine is characterized by self-quenching, which increases linearly with increasing concentration of R18. […] A total fusion of the two types of liposomes would result in a reduction of R18 concentration or quenching by ˜50%. Since liposomes also tend to fuse with their own type, this high level of fusion can never be achieved.
Liposomes containing 8 Mol % of R18 are mixed with liposomes conjugated to the fusion peptide at pH 7.4 and the fluorescence is measured using […] at λ=550 nm and emission at λ=580 nm. The pH is adjusted to 5.0 by adding few drops of 1N HCl and the change in fluorescence is measured. The total fluorescence is then determined by treating the mixture with Triton X-100. […]

Substance | binding / targeting to lung epithelial cells [1] | binding / targeting to mast cells (mast cells (RBL-2H3)) | activity as a fusogen [2]
SEQ ID NO: 1: targeting peptide whose sequence derives from endothelin-1, for lung mast cells and lung epithelial cells (CHLDIIW) | efficient targeting peptide; also recorded: high affinity | efficient targeting peptide; also recorded: high affinity | 
SEQ ID NO: 2: fusogenic peptide derived from the amphiphatic, pH-dependent peptide of influenza virus hemagglutinin (CGYWGDIMGEWGDEIFGEIAGFLG) |  |  | highly active
